# Experimental data as given in patent US20040176431A1, “Antiproliferative 2-(sulfo-phenyl)-aminothiazole derivatives and pharmaceutical compositions, and methods for their use” (Pfizer, Inc., priority 2003, published 2004).
# Target: T1, CDK4/cyclin D3 (Homo sapiens, UniProt P11802)
# T1 construct: made in house; host or cells: insect cells (baculovirus co-infection)
# Assay: Inhibition of CDK4/Cyclin D retinoblastoma kinase activity
# Assay type: biochemical
# Settings: for inhibition at 0.1 µM / % Inhib CDK4/D @ 0.1 μM: test compound at 0.1 μM; for inhibition at 0.1 µM: read-out: % Inhib CDK4/D @ 0.1 μM; for inhibition at 1 µM / % Inhib CDK4/D @ 1 μM: test compound at 1 μM (head line shifted: 'mM' printed beside 'Structure'); for inhibition at 1 µM: read-out: % Inhib CDK4/D @ 1 μM; for inhibition at 0.03 µM / % Inhib CDK4/D @ 0.03: test compound at 0.03 (unit cell empty, head line shifted; μM); for inhibition at 0.03 µM: read-out: % Inhib CDK4/D @ 0.03
# Experimental: Cyclin-dependent kinase activity was measured by quantifying the enzyme-catalyzed, time-dependent incorporation of radioactive phosphate from [^32P]ATP or [^33P]ATP into a protein substrate. Unless noted otherwise, assays were performed in 96-well plates in a total volume of 50 μL, in the presence of 10 mM HEPES (N-[2-hydroxyethyl]piperazine-N′-[2-ethanesulfonic acid]) (pH 7.4), 10 mM MgCl2, 25 μM adenosine triphosphate (ATP), 1 mg/mL ovalbumin, 5 μg/mL leupeptin, 1 mM dithiothreitol, 10 mM β-glycerophosphate, 0.1 mM sodium vanadate, 1 mM sodium fluoride, 2.5 mM ethylene glycol-bis(β-aminoethyl ether)-N,N,N′N′-tetraacetic acid (EGTA), 2% (v/v) dimethylsulfoxide, and 0.03-0.4 μCi [^32/33P]ATP per reaction. Reactions were initiated with enzyme, incubated at 30° C., and terminated after 20 minutes by the addition of ethylenediaminetetraacetic acid (EDTA) to 250 mM. The phosphorylated substrate was then captured on a nitrocellulose or phosphocellulose membrane using a 96-well filtration manifold, and unincorporated radioactivity was removed by repeated washing with 0.85% phosphoric acid. Radioactivity was quantified by exposing the dried membranes to a phosphorimager.
# Inhibition was measured relative to control wells that contained all reaction components including 2% (v/v) DMSO but no compound, after subtraction of background radioactivity measured in the absence of enzyme. Apparent Ki values of discrete compounds were measured by assaying enzyme activity in the presence of different inhibitor compound concentrations and subtracting the background radioactivity measured in the absence of enzyme. The kinetic parameters (kcat, Km for ATP) were measured for each enzyme under the usual assay conditions by determining the dependence of initial rates on ATP concentration. Inhibition data were fit to an equation for competitive inhibition using Kaleidagraph (Synergy Software), or were fit to an equation for competitive tight-binding inhibition using the software KineTic (BioKin, Ltd.).
# A complex of human CDK4 and genetically truncated (1-264) cyclin D3 was purified using traditional biochemical chromatographic techniques from insect cells that had been co-infected with the corresponding baculovirus expression vectors (see e.g., Meijer and Kim, “Chemical Inhibitors of Cyclin-Dependent Kinases,” Methods in Enzymol., 283, 113-128 (1997)). The enzyme complex (5 nM) was assayed with 0.3-0.5 μg of purified recombinant retinoblastoma protein fragment (Rb) as a substrate. The engineered Rb fragment (residues 386-928 of the native retinoblastoma protein; 62.3 kDa) contains the majority of the phosphorylation sites found in the native 106-kDa protein, as well as a tag of six histidine residues for ease of purification. Phosphorylated Rb substrate was captured by microfiltration on a nitrocellulose membrane and quantified using a phosphorimager as described above. For measurement of tight-binding inhibitors, the assay duration was extended to 60 minutes, during which the time-dependence of product formation was linear and initial rate conditions were met.
# T1 sequence (P11802 whole entry): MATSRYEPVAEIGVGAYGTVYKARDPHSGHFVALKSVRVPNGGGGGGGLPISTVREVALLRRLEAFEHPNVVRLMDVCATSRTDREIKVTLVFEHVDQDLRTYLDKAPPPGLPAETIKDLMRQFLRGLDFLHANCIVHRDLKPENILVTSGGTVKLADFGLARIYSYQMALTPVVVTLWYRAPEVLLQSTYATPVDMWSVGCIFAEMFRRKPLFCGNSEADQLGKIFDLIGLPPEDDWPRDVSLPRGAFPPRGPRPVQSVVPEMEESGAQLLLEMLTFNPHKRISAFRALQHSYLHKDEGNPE
# T1 sequence (P30281 1-264 partner limits assumed): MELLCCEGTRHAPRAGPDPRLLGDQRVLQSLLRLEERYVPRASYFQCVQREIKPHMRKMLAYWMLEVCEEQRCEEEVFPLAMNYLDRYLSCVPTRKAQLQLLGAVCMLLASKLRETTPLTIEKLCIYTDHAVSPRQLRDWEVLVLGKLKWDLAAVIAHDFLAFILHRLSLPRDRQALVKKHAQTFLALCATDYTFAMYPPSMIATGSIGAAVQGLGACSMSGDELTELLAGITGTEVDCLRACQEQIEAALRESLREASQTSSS
inhibition at 0.1 µM,inhibition at 1 µM,inhibition at 0.03 µM,% Inhib CDK4/D @ 0.1 μM,% Inhib CDK4/D @ 1 μM,% Inhib CDK4/D @ 0.03,SMILES
29%,68.2%,-16%,–,–,–,Nc1nc(Nc2ccc([S+]([O-])CCN3CCCC3)cc2)sc1C(=O)c1c(Cl)cccc1Cl (stereo not drawn) [DD(87)]
56%,81.5%,4.1%,–,–,–,Nc1nc(Nc2ccc([S+]([O-])Cc3ncon3)cc2)sc1C(=O)c1c(Cl)cccc1Cl (stereo not drawn) [DD(88)]
51%,70.9%,17%,–,–,–,COCC[S+]([O-])c1ccc(Nc2nc(N)c(C(=O)c3c(Cl)cccc3Cl)s2)cc1 (stereo not drawn) [DD(94)]
36%,66.8%,-3.5%,–,–,–,COc1cccc(C[S+]([O-])c2ccc(Nc3nc(N)c(C(=O)c4c(Cl)cccc4Cl)s3)cc2)c1 (stereo not drawn) [DD(97)]
21%,45.4%,-12%,–,–,–,Nc1nc(Nc2ccc([S+]([O-])CC3CCCO3)cc2)sc1C(=O)c1c(Cl)cccc1Cl (stereo not drawn) [DD(98)]
33%,63.7%,7.1%,–,–,–,CC1(C[S+]([O-])c2ccc(Nc3nc(N)c(C(=O)c4c(Cl)cccc4Cl)s3)cc2)CO1 (stereo not drawn) [DD(100)]
78%,80.4%,38%,–,–,–,NC(=O)C[S+]([O-])c1ccc(Nc2nc(N)c(C(=O)c3c(Cl)cccc3Cl)s2)cc1 (stereo not drawn) [DD(101)]
39%,61.9%,0.9%,–,–,–,CCC[S+]([O-])c1ccc(Nc2nc(N)c(C(=O)c3c(Cl)cccc3Cl)s2)cc1 (stereo not drawn) [DD(105)]
–,–,–,67%,73.5%,25%,Nc1nc(Nc2ccc([S+]([O-])CCO)cc2)sc1C(=O)c1c(Cl)cccc1Cl (stereo not drawn) [DD(109)]
30%,59.4%,1.1%,–,–,–,CCOCC[S+]([O-])c1ccc(Nc2nc(N)c(C(=O)c3c(Cl)cccc3Cl)s2)cc1 (stereo not drawn) [DD(113)]
46%,77.9%,16%,–,–,–,Nc1nc(Nc2ccc([S+]([O-])CC(O)CO)cc2)sc1C(=O)c1c(Cl)cccc1Cl (stereo not drawn) [DD(114)]
45%,68.5%,6.3%,–,–,–,Nc1nc(Nc2ccc([S+]([O-])Cc3ccncc3)cc2)sc1C(=O)c1c(Cl)cccc1Cl (stereo not drawn) [DD(115)]
36%,58%,3.8%,–,–,–,Nc1nc(Nc2ccc([S+]([O-])CCN3CCOCC3)cc2)sc1C(=O)c1c(Cl)cccc1Cl (stereo not drawn) [DD(119)]
34%,51.2%,8%,–,–,–,CC(CN(C)C)C[S+]([O-])c1cccc(Nc2nc(N)c(C(=O)c3c(Cl)cccc3Cl)s2)c1 (stereo not drawn) [DD(123)]

# Continued, molecule first:
SMILES,inhibition at 0.1 µM,inhibition at 1 µM,inhibition at 0.03 µM,% Inhib CDK4/D @ 0.1 μM,% Inhib CDK4/D @ 1 μM,% Inhib CDK4/D @ 0.03
COC(=O)/C=C/C[S+]([O-])c1ccc(Nc2nc(N)c(C(=O)c3c(Cl)cccc3Cl)s2)cc1 (stereo not drawn) [DD(84)],26%,45.7%,-5.6%,–,–,–
Nc1nc(Nc2ccc([S+]([O-])CCCO)cc2)sc1C(=O)c1c(Cl)cccc1Cl (stereo not drawn) [DD(85)],49%,76.8%,3.7%,–,–,–
C=CCC[S+]([O-])c1ccc(Nc2nc(N)c(C(=O)c3c(Cl)cccc3Cl)s2)cc1 (stereo not drawn) [DD(86)],36%,62.5%,-9.8%,–,–,–
Nc1nc(Nc2ccc([S+]([O-])CC3CNC(=O)O3)cc2)sc1C(=O)c1c(Cl)cccc1Cl (stereo not drawn) [DD(89)],35%,61.7%,-29%,–,–,–
CN(C)CCC[S+]([O-])c1ccc(Nc2nc(N)c(C(=O)c3c(Cl)cccc3Cl)s2)cc1 (stereo not drawn) [DD(90)],44%,70.2%,-4.9%,–,–,–
Nc1nc(Nc2ccc([S+]([O-])CCN3CCCCC3)cc2)sc1C(=O)c1c(Cl)cccc1Cl (stereo not drawn) [DD(91)],24%,68.2%,-6.3%,–,–,–
Nc1nc(Nc2ccc([S+]([O-])CC3CO3)cc2)sc1C(=O)c1c(Cl)cccc1Cl (stereo not drawn) [DD(92)],26%,65.8%,-4.6%,–,–,–
CC(C)CC[S+]([O-])c1ccc(Nc2nc(N)c(C(=O)c3c(Cl)cccc3Cl)s2)cc1 (stereo not drawn) [DD(93)],35%,43%,-4.4%,–,–,–
Nc1nc(Nc2ccc([S+]([O-])CC(=O)Nc3ccccc3)cc2)sc1C(=O)c1c(Cl)cccc1Cl (stereo not drawn) [DD(95)],55%,80.7%,5.3%,–,–,–
Nc1nc(Nc2ccc([S+]([O-])CC3CC3)cc2)sc1C(=O)c1c(Cl)cccc1Cl (stereo not drawn) [DD(96)],28%,55.4%,-8.1%,–,–,–
CN1CCCC1CC[S+]([O-])c1ccc(Nc2nc(N)c(C(=O)c3c(Cl)cccc3Cl)s2)cc1 (stereo not drawn) [DD(99)],34%,77.1%,-5.6%,–,–,–
CCOC(=O)CC[S+]([O-])c1ccc(Nc2nc(N)c(C(=O)c3c(Cl)cccc3Cl)s2)cc1 (stereo not drawn) [DD(102)],42%,46.2%,2.1%,–,–,–
CC(C)OC(=O)C[S+]([O-])c1ccc(Nc2nc(N)c(C(=O)c3c(Cl)cccc3Cl)s2)cc1 (stereo not drawn) [DD(103)],38%,47.5%,-2.9%,–,–,–
CC(C)=CC[S+]([O-])c1ccc(Nc2nc(N)c(C(=O)c3c(Cl)cccc3Cl)s2)cc1 (stereo not drawn) [DD(104)],14%,36.4%,-38%,–,–,–
COC(=O)C[S+]([O-])c1ccc(Nc2nc(N)c(C(=O)c3c(Cl)cccc3Cl)s2)cc1 (stereo not drawn) [DD(106)],45%,66.8%,1.7%,–,–,–
CN1CCCC(C[S+]([O-])c2ccc(Nc3nc(N)c(C(=O)c4c(Cl)cccc4Cl)s3)cc2)C1 (stereo not drawn) [DD(107)],28%,47.3%,-11%,–,–,–
NC(=O)CC[S+]([O-])c1ccc(Nc2nc(N)c(C(=O)c3c(Cl)cccc3Cl)s2)cc1 (stereo not drawn) [DD(108)],60%,73.9%,14%,–,–,–
Nc1nc(Nc2ccc([S+]([O-])CCO)cc2)sc1C(=O)c1c(Cl)cccc1Cl (stereo not drawn) [DD(110)],–,–,–,27%,28.9%,3.7%
CC(C)CCOC(=O)C[S+]([O-])c1ccc(Nc2nc(N)c(C(=O)c3c(Cl)cccc3Cl)s2)cc1 (stereo not drawn) [DD(111)],32%,64.8%,-1.7%,–,–,–
CN(C)CC[S+]([O-])c1ccc(Nc2nc(N)c(C(=O)c3c(Cl)cccc3Cl)s2)cc1 (stereo not drawn) [DD(112)],27%,63.2%,-4.9%,–,–,–
CCC(CC)C[S+]([O-])c1ccc(Nc2nc(N)c(C(=O)c3c(Cl)cccc3Cl)s2)cc1 (stereo not drawn) [DD(116)],15%,26.6%,-2.9%,–,–,–
CC(=O)OCC[S+]([O-])c1ccc(Nc2nc(N)c(C(=O)c3c(Cl)cccc3Cl)s2)cc1 (stereo not drawn) [DD(117)],52%,61.1%,16%,–,–,–
CC(C)OC(=O)CC[S+]([O-])c1ccc(Nc2nc(N)c(C(=O)c3c(Cl)cccc3Cl)s2)cc1 (stereo not drawn) [DD(118)],22%,49.9%,-0.7%,–,–,–
CC(C)(CO)C[S+]([O-])c1ccc(Nc2nc(N)c(C(=O)c3c(Cl)cccc3Cl)s2)cc1 (stereo not drawn) [DD(120)],29%,57.1%,-34%,–,–,–
CCN(CC)C(=O)C[S+]([O-])c1cccc(Nc2nc(N)c(C(=O)c3c(Cl)cccc3Cl)s2)c1 (stereo not drawn) [DD(121)],41%,59.8%,-0.5%,–,–,–
Cc1noc(C)c1C[S+]([O-])c1cccc(Nc2nc(N)c(C(=O)c3c(Cl)cccc3Cl)s2)c1 (stereo not drawn) [DD(122)],40%,54.3%,16%,–,–,–
